Measured values published in patent US9902736B2, “1-oxo/acylation-14-acylated oridonin derivative, preparation method therefor and application thereof” (HANGZHOU BENSHENG PHARMACEUTICAL CO., LTD., priority 2012, dated 2018).
Values after ≈ are worked out from the molar mass of the structure shown.

Tested on: K562/ADR
Assay: Leukemia cell growth inhibition, MTT, 72 h
Type: cell-based
Details: Homo sapiens
Source text: (§1) Leukemia cell lines: leukemia cell lines: K562/adr (drug-resistant, chronic myeloid leukemia, CML), NB4 (acute promyelocytic leukemia, AML), Kasumi-1 (acute myeloid leukemia M2 type, AML-M2), Jurkat (acute lymphoblastic leukemia, ALL), all of which were donated by Cancer Research Institute of Zhejiang University, China; and H9 (acute lymphoblastic leukemia, ALL), which was purchased from China Center for Type Culture Collection.
(§2) 6000 well-growing leukemia cells were obtained and inoculated into wells of a 96-well cell culture plate. […] On the next day, the 1-oxo/acylated-14-acylated oridonin derivatives of different concentrations were added and mixed uniformly. The plate was placed in a carbon dioxide cell incubator (5% CO2) at 37° C. and was incubated for 72 hours. Then the viable cell concentration was determined by MTT method.

IC50 [µg/mL]	IC90 [µg/mL]	Compound
0.75 (≈ 1.6 µM)	3.2 (≈ 6.84 µM)	C=C1C(=O)[C@]23[C@H](OC(=O)c4ccncc4)[C@H]1CC[C@H]2[C@@]12CO[C@@]3(O)[C@@H](O)[C@@H]1C(C)(C)CCC2=O [BS-OR-012]

Tested on: Kasumi-1
Assay: Leukemia cell growth inhibition, MTT, 72 h
Type: cell-based
Details: Homo sapiens
Source text: as §1, §2

IC50 [µg/mL]	IC90 [µg/mL]	Compound
1.15 (≈ 2.46 µM)	2.39 (≈ 5.11 µM)	C=C1C(=O)[C@]23[C@H](OC(=O)c4ccncc4)[C@H]1CC[C@H]2[C@@]12CO[C@@]3(O)[C@@H](O)[C@@H]1C(C)(C)CCC2=O [BS-OR-012]

Tested on: H9
Assay: Leukemia cell growth inhibition, MTT, 72 h
Type: cell-based, human
Details: Homo sapiens, H9; 72 h, MTT
Source text: as §1, §2

IC50 [µg/mL]	IC90 [µg/mL]	Compound
0.75 (≈ 1.6 µM)	1.99 (≈ 4.26 µM)	C=C1C(=O)[C@]23[C@H](OC(=O)c4ccncc4)[C@H]1CC[C@H]2[C@@]12CO[C@@]3(O)[C@@H](O)[C@@H]1C(C)(C)CCC2=O [BS-OR-012]

Tested on: Jurkat
Assay: Leukemia cell growth inhibition, MTT, 72 h
Type: cell-based, human
Details: Homo sapiens, Jurkat; 72 h, MTT
Source text: as §1, §2

IC50 [µg/mL]	IC90 [µg/mL]	Compound
0.99 (≈ 2.12 µM)	5.77 (≈ 12.3 µM)	C=C1C(=O)[C@]23[C@H](OC(=O)c4ccncc4)[C@H]1CC[C@H]2[C@@]12CO[C@@]3(O)[C@@H](O)[C@@H]1C(C)(C)CCC2=O [BS-OR-012]

Tested on: NB4
Assay: Leukemia cell growth inhibition, MTT, 72 h
Type: cell-based, human
Details: Homo sapiens, NB-4; 72 h, MTT
Source text: as §1, §2

IC50 [µg/mL]	IC90 [µg/mL]	Compound
0.32 (≈ 0.684 µM)	1.3 (≈ 2.78 µM)	C=C1C(=O)[C@]23[C@H](OC(=O)c4ccncc4)[C@H]1CC[C@H]2[C@@]12CO[C@@]3(O)[C@@H](O)[C@@H]1C(C)(C)CCC2=O [BS-OR-012]

Tested on: RPMI 8226
Assay: Multiple myeloma cell growth inhibition, MTT, 72 h
Type: cell-based
Details: Homo sapiens
Method: Multiple myeloma cell lines: RPMI8226 (multiple myeloma), purchased from Fuxiang Bio-tech Co. Ltd., Shanghai, China.
as §2, with “well-growing” for “well-growing leukemia”, “and” for “and was”

IC50 [µg/mL]	IC90 [µg/mL]	Compound
0.92 (≈ 1.97 µM)	3.48 (≈ 7.44 µM)	C=C1C(=O)[C@]23[C@H](OC(=O)c4ccncc4)[C@H]1CC[C@H]2[C@@]12CO[C@@]3(O)[C@@H](O)[C@@H]1C(C)(C)CCC2=O [BS-OR-012]

Tested on: CNE
Assay: Solid tumor cell growth inhibition, MTT, 72 h
Type: cell-based, human
Details: Homo sapiens, CNE; 72 h, MTT
Method: (§3) 6000 well-growing human solid tumor cells were obtained and inoculated into wells of a 96-well cell culture plate. The culture medium was DMEM High Glucose cell culture medium containing 10% fetal bovine serum. The plate was placed in a carbon dioxide cell incubator (5% CO2) at 37° C. and incubated for 24 hours. After added with 1-oxo/acylated-14-acylated oridonin derivatives of different concentration and mixed uniformly, the plate was placed in a carbon dioxide cell incubator (5% CO2) at 37° C. and incubated for 72 hours. Then the viable cell concentration was determined by MTT method.

IC50 [µg/mL]	IC90 [µg/mL]	Compound
2.47 (≈ 5.28 µM)	9.36 (≈ 20 µM)	C=C1C(=O)[C@]23[C@H](OC(=O)c4ccncc4)[C@H]1CC[C@H]2[C@@]12CO[C@@]3(O)[C@@H](O)[C@@H]1C(C)(C)CCC2=O [BS-OR-012]

Tested on: Hela
Assay: Solid tumor cell growth inhibition, MTT, 72 h
Type: cell-based, human
Details: Homo sapiens, HeLa; 72 h, MTT
Method: as §3

IC50 [µg/mL]	IC90 [µg/mL]	Compound
2.42 (≈ 5.18 µM)	6.3 (≈ 13.5 µM)	C=C1C(=O)[C@]23[C@H](OC(=O)c4ccncc4)[C@H]1CC[C@H]2[C@@]12CO[C@@]3(O)[C@@H](O)[C@@H]1C(C)(C)CCC2=O [BS-OR-012]

Tested on: Hep-2
Assay: Solid tumor cell growth inhibition, MTT, 72 h
Type: cell-based, human
Details: Homo sapiens, HEp-2; 72 h, MTT
Method: as §3

IC50 [µg/mL]	IC90 [µg/mL]	Compound
3.61 (≈ 7.72 µM)	14.7 (≈ 31.5 µM)	C=C1C(=O)[C@]23[C@H](OC(=O)c4ccncc4)[C@H]1CC[C@H]2[C@@]12CO[C@@]3(O)[C@@H](O)[C@@H]1C(C)(C)CCC2=O [BS-OR-012]

Tested on: MGC-803
Assay: Solid tumor cell growth inhibition, MTT, 72 h
Type: cell-based, human
Details: Homo sapiens, MGC-803; 72 h, MTT
Method: as §3

IC50 [µg/mL]	IC90 [µg/mL]	Compound
1.79 (≈ 3.83 µM)	3.99 (≈ 8.53 µM)	C=C1C(=O)[C@]23[C@H](OC(=O)c4ccncc4)[C@H]1CC[C@H]2[C@@]12CO[C@@]3(O)[C@@H](O)[C@@H]1C(C)(C)CCC2=O [BS-OR-012]

Tested on: A549
Assay: Solid tumor cell growth inhibition, MTT, 72 h
Type: cell-based
Details: Homo sapiens
Method: as §3

IC50 [µg/mL]	IC90 [µg/mL]	Compound
5.55 (≈ 11.9 µM)	10.7 (≈ 22.9 µM)	C=C1C(=O)[C@]23[C@H](OC(=O)c4ccncc4)[C@H]1CC[C@H]2[C@@]12CO[C@@]3(O)[C@@H](O)[C@@H]1C(C)(C)CCC2=O [BS-OR-012]

Tested on: Becap-37
Assay: Solid tumor cell growth inhibition, MTT, 72 h
Type: cell-based
Details: Homo sapiens
Method: as §3

IC50 [µg/mL]	IC90 [µg/mL]	Compound
2.39 (≈ 5.11 µM)	6.29 (≈ 13.5 µM)	C=C1C(=O)[C@]23[C@H](OC(=O)c4ccncc4)[C@H]1CC[C@H]2[C@@]12CO[C@@]3(O)[C@@H](O)[C@@H]1C(C)(C)CCC2=O [BS-OR-012]

Tested on: CaEs-17
Assay: Solid tumor cell growth inhibition, MTT, 72 h
Type: cell-based
Details: Homo sapiens, CaEs17
Method: as §3

IC50 [µg/mL]	IC90 [µg/mL]	Compound
2.01 (≈ 4.3 µM)	10 (≈ 21.5 µM)	C=C1C(=O)[C@]23[C@H](OC(=O)c4ccncc4)[C@H]1CC[C@H]2[C@@]12CO[C@@]3(O)[C@@H](O)[C@@H]1C(C)(C)CCC2=O [BS-OR-012]

Tested on: Hep G2
Assay: Solid tumor cell growth inhibition, MTT, 72 h
Type: cell-based
Details: Homo sapiens, HepG2
Method: as §3

IC50 [µg/mL]	IC90 [µg/mL]	Compound
3.01 (≈ 6.44 µM)	16 (≈ 34.2 µM)	C=C1C(=O)[C@]23[C@H](OC(=O)c4ccncc4)[C@H]1CC[C@H]2[C@@]12CO[C@@]3(O)[C@@H](O)[C@@H]1C(C)(C)CCC2=O [BS-OR-012]

Tested on: MG-63
Assay: Solid tumor cell growth inhibition, MTT, 72 h
Type: cell-based
Details: Homo sapiens
Method: as §3

IC50 [µg/mL]	IC90 [µg/mL]	Compound
0.99 (≈ 2.12 µM)	3.84 (≈ 8.21 µM)	C=C1C(=O)[C@]23[C@H](OC(=O)c4ccncc4)[C@H]1CC[C@H]2[C@@]12CO[C@@]3(O)[C@@H](O)[C@@H]1C(C)(C)CCC2=O [BS-OR-012]

Tested on: PANC-1
Assay: Solid tumor cell growth inhibition, MTT, 72 h
Type: cell-based
Details: Homo sapiens
Method: as §3

IC50 [µg/mL]	IC90 [µg/mL]	Compound
4.11 (≈ 8.79 µM)	10.2 (≈ 21.8 µM)	C=C1C(=O)[C@]23[C@H](OC(=O)c4ccncc4)[C@H]1CC[C@H]2[C@@]12CO[C@@]3(O)[C@@H](O)[C@@H]1C(C)(C)CCC2=O [BS-OR-012]

Tested on: PC-3
Assay: Solid tumor cell growth inhibition, MTT, 72 h
Type: cell-based
Details: Homo sapiens
Method: as §3

IC50 [µg/mL]	IC90 [µg/mL]	Compound
3.48 (≈ 7.44 µM)	7.54 (≈ 16.1 µM)	C=C1C(=O)[C@]23[C@H](OC(=O)c4ccncc4)[C@H]1CC[C@H]2[C@@]12CO[C@@]3(O)[C@@H](O)[C@@H]1C(C)(C)CCC2=O [BS-OR-012]

Tested on: RKO
Assay: Solid tumor cell growth inhibition, MTT, 72 h
Type: cell-based
Details: Homo sapiens
Method: as §3

IC50 [µg/mL]	IC90 [µg/mL]	Compound
1.01 (≈ 2.16 µM)	1.98 (≈ 4.24 µM)	C=C1C(=O)[C@]23[C@H](OC(=O)c4ccncc4)[C@H]1CC[C@H]2[C@@]12CO[C@@]3(O)[C@@H](O)[C@@H]1C(C)(C)CCC2=O [BS-OR-012]

Tested on: SK-OV-3
Assay: Solid tumor cell growth inhibition, MTT, 72 h
Type: cell-based
Details: Homo sapiens, SK-OV-3; 72 h, MTT; read-out: IC50 SK-OV-3
Method: as §3

IC50 [µg/mL]	Compound
3.48 (≈ 7.44 µM)	C=C1C(=O)[C@]23[C@H](OC(=O)c4ccncc4)[C@H]1CC[C@H]2[C@@]12CO[C@@]3(O)[C@@H](O)[C@@H]1C(C)(C)CCC2=O [BS-OR-012]

Same assay, conditions: Homo sapiens, SK-OV-3; 72 h, MTT; read-out: IC90 SK-OV-3

IC90 [µg/mL]	Compound
7.54 (≈ 16.1 µM)	C=C1C(=O)[C@]23[C@H](OC(=O)c4ccncc4)[C@H]1CC[C@H]2[C@@]12CO[C@@]3(O)[C@@H](O)[C@@H]1C(C)(C)CCC2=O [BS-OR-012]

Tested on: U87-MG
Assay: Solid tumor cell growth inhibition, MTT, 72 h
Type: cell-based
Details: Homo sapiens, U-87 MG
Method: as §3

IC50 [µg/mL]	IC90 [µg/mL]	Compound
1.88 (≈ 4.02 µM)	6.17 (≈ 13.2 µM)	C=C1C(=O)[C@]23[C@H](OC(=O)c4ccncc4)[C@H]1CC[C@H]2[C@@]12CO[C@@]3(O)[C@@H](O)[C@@H]1C(C)(C)CCC2=O [BS-OR-012]
